Data on 16 molecules can be found in ChEMBL document CHEMBL1157604 (J Med Chem, 2010).

Molecules are shown by their SMILES. pIC50: −log10 of the molar value. Active and inactive are the calls of the source. No cut-off for these calls is given here.

The target in test [1] is Sodium-dependent noradrenaline transporter (Homo sapiens, UniProt P23975). The experiment in a line: Inhibition of [3H]norepinephrine uptake at human NET expressed in HEK293 cells. Type of test: cell-based.
Test [2] concerns the target Neuronal acetylcholine receptor; alpha3/beta4 (Homo sapiens) (UniProt P30926+P32297). The experiment in a line: Intrinsic activity at alpha3beta4 nAChR receptor in human SH-SY5Y cells assessed as 86Rb+ efflux at 5 to 100 uM by liquid scintillation counting. Type of test: cell-based.
In test [3] the target is Neuronal acetylcholine receptor; alpha4/beta2 (Homo sapiens) (UniProt P17787+P43681). The experiment in a line: Intrinsic activity at human alpha4beta2 nAChR receptor expressed in human SH-SY5Y cells assessed as 86Rb+ efflux at 5 to 100 uM by liquid scintillation counting. Type of test: cell-based.
The target of test [4] is Neuronal acetylcholine receptor; alpha4/beta4 (Homo sapiens) (UniProt P30926+P43681). The experiment in a line: Intrinsic activity at human alpha4beta4 nAChR receptor expressed in human SH-SY5Y cells assessed as 86Rb+ efflux at 5 to 100 uM by liquid scintillation counting. In kind it is cell-based.
Test [5] addresses Acetylcholine receptor; alpha1/beta1/delta/gamma (Homo sapiens) (UniProt P02708+P07510+P11230+Q07001). Description: Intrinsic activity at alpha-1-beta-1-gamma-delta nAChR receptor expressed in human TE671/RD cells assessed as 86Rb+ efflux at 5 to 100 uM by liquid scintillation counting. In kind it is cell-based.
The species named for test [6] is Mus musculus. The experiment in a line: Antinociceptive activity in ICR mouse D'Amour and Smith model of pain assessed as inhibition of nicotine-induced response by tail-flick test. In kind it is functional.
The species named for test [7] is Mus musculus. The experiment in a line: Antinociceptive activity in ICR mouse assessed as inhibition of nicotine-induced response by hotplate test. Type of test: functional.
The species named for test [8] is Mus musculus. The experiment in a line: Effect on behavioral activity in ICR mouse assessed as inhibition of nicotine-induced locomotory response by locomotor assay. Type of test: functional.
For test [9], the species on record is Mus musculus. The experiment in a line: Effect on body temperature in ICR mouse assessed as inhibition of nicotine-induced hypothermic response. In kind it is functional.
In test [10] the target is Sodium-dependent dopamine transporter (Homo sapiens, UniProt Q01959). The experiment in a line: Inhibition of [3H]dopamine uptake at human DAT expressed in HEK293 cells. In kind it is cell-based.
Sequence of Sodium-dependent dopamine transporter (Q01959 whole entry): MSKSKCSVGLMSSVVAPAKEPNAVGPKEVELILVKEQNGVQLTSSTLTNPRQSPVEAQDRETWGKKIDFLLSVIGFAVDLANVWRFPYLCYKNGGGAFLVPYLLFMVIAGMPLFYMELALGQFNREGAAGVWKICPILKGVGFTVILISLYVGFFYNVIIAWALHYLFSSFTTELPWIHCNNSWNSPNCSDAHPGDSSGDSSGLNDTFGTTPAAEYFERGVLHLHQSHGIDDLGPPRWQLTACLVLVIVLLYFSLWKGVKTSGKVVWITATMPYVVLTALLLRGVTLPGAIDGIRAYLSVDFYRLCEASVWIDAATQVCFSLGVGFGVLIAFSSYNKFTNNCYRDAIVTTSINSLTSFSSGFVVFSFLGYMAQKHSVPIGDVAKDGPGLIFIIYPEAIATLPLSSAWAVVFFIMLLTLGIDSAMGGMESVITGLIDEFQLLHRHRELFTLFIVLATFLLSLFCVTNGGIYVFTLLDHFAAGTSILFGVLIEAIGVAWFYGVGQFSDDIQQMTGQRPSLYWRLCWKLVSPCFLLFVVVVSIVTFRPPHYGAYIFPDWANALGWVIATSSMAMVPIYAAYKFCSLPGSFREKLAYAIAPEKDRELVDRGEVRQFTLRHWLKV

Sequence of Sodium-dependent noradrenaline transporter (P23975 whole entry): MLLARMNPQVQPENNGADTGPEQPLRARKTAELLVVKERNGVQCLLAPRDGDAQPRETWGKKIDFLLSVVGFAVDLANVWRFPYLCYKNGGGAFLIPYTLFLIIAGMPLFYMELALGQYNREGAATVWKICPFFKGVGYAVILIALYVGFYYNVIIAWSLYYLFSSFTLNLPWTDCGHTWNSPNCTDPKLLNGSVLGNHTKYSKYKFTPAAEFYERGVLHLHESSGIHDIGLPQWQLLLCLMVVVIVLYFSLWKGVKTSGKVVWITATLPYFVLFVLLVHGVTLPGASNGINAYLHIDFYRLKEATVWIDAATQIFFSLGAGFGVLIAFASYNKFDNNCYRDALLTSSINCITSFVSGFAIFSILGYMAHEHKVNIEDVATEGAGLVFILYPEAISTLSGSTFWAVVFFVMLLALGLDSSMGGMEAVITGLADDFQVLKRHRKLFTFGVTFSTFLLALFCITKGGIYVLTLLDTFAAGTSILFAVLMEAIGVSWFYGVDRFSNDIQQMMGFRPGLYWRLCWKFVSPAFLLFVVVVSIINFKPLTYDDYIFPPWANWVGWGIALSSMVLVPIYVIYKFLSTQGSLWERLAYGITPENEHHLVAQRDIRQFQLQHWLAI

Usually pIC50 stands for −log10 of the IC50, conventionally taken in molar units. In [1], `Cc1cc(C(=O)C(C)NC(C)(C)C)ccc1Br` (stereo not given) showed a pIC50 of 5.14. Also, the outcome in test [2], in test [3], in [4] and in test [5] was inactive. Besides, in test [6], the AD50 came to 0.015 mg/kg. Also, the AD50 entry in test [7], in [8] and in test [9] was “inactive” in each case.

With `CC(NC(C)(C)C)C(=O)c1cccc([N+](=O)[O-])c1` (stereo not given), the outcome in [2], in test [3], in test [4] and in [5] was inactive. Moreover, the AD50 result in [6], in [7], in test [8] and in test [9] was “inactive” throughout.

Consider `CC(CNC(C)(C)C)C(=O)c1cccc(Cl)c1` (stereo not given), for which the outcome in test [2], in test [3], in [4] and in test [5] was inactive. Further, the values for the AD50 in test [6] and in test [9] were 10.5 mg/kg and 16 mg/kg, respectively. Moreover, the AD50 entry in test [7] and in [8] was “inactive” throughout.

Turning to `CC(NC1CCCC1)C(=O)c1cccc(Cl)c1` (stereo not given), the outcome in test [2], in [3], in [4] and in [5] was inactive. Besides, the AD50 in [6] was found to be 0.014 mg/kg. In addition, the AD50 result in test [7], in [8] and in [9] was “inactive” in each case.

Regarding `CC(C(=O)c1cccc(Cl)c1)N(C)C(C)(C)C` (stereo not given), the values for the pIC50 in [10] and in [1] were 5.22 and 5.80, respectively. For the same molecule, the outcome in [2], in test [3], in test [4] and in [5] was inactive. In addition, the AD50 in test [6] turned out to be 0.46 mg/kg; in test [7], 8.7 mg/kg. Moreover, the AD50 entry in test [8] and in test [9] was “inactive” throughout.

On to `CC(NC1CCCC1)C(=O)c1cccc([N+](=O)[O-])c1` (stereo not given), for which the outcome in test [2], in test [3], in [4] and in test [5] was inactive. The AD50 result in test [6], in test [7], in [8] and in [9] was “inactive” throughout.

As for `CC(NC(C)(C)C)C(=O)c1cccc(Br)c1` (stereo not given), the values for the pIC50 in [10] and in test [1] were 6.29 and 5.25, respectively. The result in [2], in [3], in test [4] and in test [5] was inactive. In addition, the AD50 in [6] turned out to be 0.12 mg/kg; in test [7], 14.9 mg/kg; in test [8], 27.1 mg/kg; in [9] it was 11.5 mg/kg.

Regarding `Cc1cccc(C(=O)C(C)NC(C)(C)C)c1` (stereo not given), the pIC50 in [1] was 5.21. Also, the result in test [2], in test [3], in test [4] and in test [5] was inactive. Also, the AD50 in [6] was found to be 0.05 mg/kg; in [7], 6.8 mg/kg; in test [8], 4.3 mg/kg; in [9], 7.8 mg/kg.

As to `Cc1ccc(C(=O)C(C)NC(C)(C)C)cc1` (stereo not given), the pIC50 in [10] is 5.71. In addition, the outcome in [2], in test [3], in test [4] and in test [5] was inactive. In addition, the AD50 in test [6] turned out to be 0.09 mg/kg; in test [7], 7.75 mg/kg; in test [8] it was 11.8 mg/kg; in test [9], 8.8 mg/kg.

`CCC(NC(C)(C)C)C(=O)c1cccc(Cl)c1` (stereo not given): the pIC50 in test [10] was 6.68. Besides, the result in [2], in test [3], in test [4] and in [5] was inactive. Besides, the results for the AD50 in [6] and in test [8] were 0.5 mg/kg and 11.7 mg/kg, respectively. For the same molecule, the AD50 entry in [7] and in test [9] was “inactive” each time.

`CC(C(=O)c1cccc(Cl)c1)N(C)C` (stereo not given): the pIC50 in test [10] was 5.76; in test [1], 5.82. Besides, the result in [2], in test [3], in [4] and in test [5] was inactive. The AD50 in [6] turned out to be 5.2 mg/kg. The AD50 entry in test [7], in [8] and in test [9] was “inactive” throughout.

Turning to `CC(NC(C)(C)C)C(=O)c1cc(Cl)cc(Cl)c1` (stereo not given), the pIC50 in test [1] is 4.85. Also, the outcome in [2], in test [3], in test [4] and in test [5] was inactive. In addition, the AD50 in test [6] amounted to 0.028 mg/kg; in test [7], 4.3 mg/kg. The AD50 entry in test [8] and in [9] was “inactive” throughout.

`CC(C(=O)c1cccc([N+](=O)[O-])c1)N1CCCCC1` (stereo not given) had a negative-log IC50 (pIC50) in test [10] of 5.00. Also, the result in [2], in [3], in test [4] and in test [5] was inactive. Further, the AD50 entry in test [6], in test [7], in [8] and in [9] was “inactive” each time.

Regarding `CC(NC(C)(C)C)C(=O)c1cccs1` (stereo not given), the outcome in [2], in test [3], in test [4] and in test [5] was inactive. For the same molecule, the AD50 in [6] came to 0.077 mg/kg. In addition, the AD50 entry in test [7], in test [8] and in [9] was “inactive” each time.

The molecule `COc1cccc(C(=O)C(C)NC(C)(C)C)c1` (stereo not given) showed a pIC50 in test [10] of 5.44. Besides, the outcome in test [2], in test [3], in test [4] and in [5] was inactive. In addition, in [6], the AD50 came to 1.6 mg/kg. Further, the AD50 entry in [7], in test [8] and in test [9] was “inactive” each time.

For `CC(NC(C)(C)C)C(=O)c1cccc(Cl)c1` (stereo not given) [BUPROPION], the result in [2], in test [3], in test [4] and in test [5] was inactive. In addition, the values for the AD50 in test [6], in [7] and in [9] were 1.2 mg/kg, 15 mg/kg and 9.2 mg/kg, respectively.
